Data published in patent publication US12691112B2, “FGFR tyrosine kinase inhibitors for the treatment of urothelial carcinoma” (Janssen Pharmaceutica NV, priority 2019, dated 2026).
Like-named read-outs stand apart in the source and are kept apart here.

Test system: metastatic or surgically unresectable urothelial cancer harboring select FGFR genetic alterations
Settings: chemo relapsed/refractory
Source text: The study comprises a Screening Phase (molecular screening at any time prior to first dose and study screening within 30 days of first dose), a treatment phase, and a post-treatment follow-up phase. The treatment phase comprises the period from first dose until the end-of-treatment visit. The follow-up phase extends until the subject has died, withdraws consent, is lost to follow-up, or the end of study, whichever comes first.
Included patients were adults with measurable urothelial cancer per Response Evaluation Criteria in Solid Tumors version 1.1.
Patients were required to have at least 1 FGFR2/FGFR3 mutation or fusion per central lab testing of RNA from formalin-fixed, paraffin-embedded tumor samples, using a custom reverse transcriptase polymerase chain reaction assay.
Patients were contacted every 12 weeks for survival assessment.
The study was designed to enroll 180 patients with specified FGFR alterations. Of these, ≥88 were required in the selected regimen. […] Responses were assessed by investigators and an independent radiological review committee. Progression-free survival and overall survival were estimated using Kaplan-Meier product limit method. Data from patients who were progression free and alive or with unknown status were censored at last tumor assessment. Efficacy end points were analysed at primary analysis cut-off.

[1] = 6 mg QD, Any FGFR alterations, n=73
[2] = 6 mg QD, FGFR fusions (excluding mutations), 2 responders
[3] = 6 mg QD, FGFR fusions (excluding mutations), n=10
[4] = 6 mg QD, FGFR mutations (excluding fusions), 22 responders
[5] = 6 mg QD, FGFR mutations (excluding fusions), n=59
[6] = 6 mg QD, FGFR mutations and fusions, 3 responders
[7] = 6 mg QD, FGFR mutations and fusions, n=4
[8] = 6 mg QD, Fusion: FGFR2-CASP7/FGFR3-BAIAP2L1, n=1
[9] = 6 mg QD, Mutation and fusion: FGFR3-G370C/FGFR2-BICC1, n=1
[10] = 6 mg QD, Mutation and fusion: FGFR3-G370C/FGFR3-TACC3 V1, n=1
[11] = 6 mg QD, Mutation and fusion: FGFR3-R248C/FGFR3-S249C/FGFR3-TACC3 V1, n=1
[12] = 6 mg QD, Mutation and fusion: FGFR3-R248C/FGFR3-TACC3 V1, n=1
[13] = 6 mg QD, Mutation: FGFR3-G370C/FGFR3-S249C, n=1
[14] = 6 mg QD, Mutation: FGFR3-R248C/FGFR3-Y373C, n=1
[15] = 8 mg QD, Any FGFR alterations, n=87
[16] = 8 mg QD, FGFR fusions (excluding mutations), 4 responders
[17] = 8 mg QD, FGFR fusions (excluding mutations), n=23
[18] = 8 mg QD, FGFR mutations (excluding fusions), 31 responders
[19] = 8 mg QD, FGFR mutations (excluding fusions), n=64
[20] = 8 mg QD, Fusion: FGFR2-CASP7/FGFR3-TACC3 V3, n=1
[21] = 10 mg 7 on/7 off, Any FGFR alterations, n=29
[22] = 10 mg 7 on/7 off, FGFR fusions (excluding mutations), n=2
[23] = 10 mg 7 on/7 off, FGFR mutations (excluding fusions), 5 responders
[24] = 10 mg 7 on/7 off, FGFR mutations (excluding fusions), n=24
[25] = 10 mg 7 on/7 off, FGFR mutations and fusions, 1 responder
[26] = 10 mg 7 on/7 off, FGFR mutations and fusions, n=3
[27] = 10 mg 7 on/7 off, Mutation and fusion: FGFR3-R248C/FGFR3-TACC3 V1, n=1
[28] = 10 mg 7 on/7 off, Mutation and fusion: FGFR3-S249C/FGFR3-BAIAP2L1, n=1
[29] = 10 mg 7 on/7 off, Mutation and fusion: FGFR3-S249C/FGFR3-Y373C/FGFR2-CASP7/FGFR3-BAIAP2L1/FGFR3-TACC3 V1/FGFR3-TACC3 V3, n=1

With `COc1cc(OC)cc(N(CCNC(C)C)c2ccc3ncc(-c4cnn(C)c4)nc3c2)c1` [erdafitinib, N-(3,5-dimethoxy-phenyl)-N′-(1-methylethyl)-N-[3-(1-methyl-1H-pyrazol-4-yl)quinoxalin-6-yl]ethane-1,2-diamine] the “Confirmed complete response (CR)” value [1] was 3 (4.1%), the “Confirmed partial response (PR)” value [1] was 24 (32.9%) and the “Disease control rate (CR + PR + SD)” value [1] was 55 (75.3%). For the same molecule, the Inevaluable [1] was 4 (5.5%), the “Progressive disease (PD)” value [1] was 14 (19.2%) and the “6-month progression-free survival rate (95% CI), among responders” value [2] was 0.50 (0.01, 0.91). For the same molecule, the “9-month progression-free survival rate (95% CI), among responders” value [2] was 0.50 (0.01, 0.91), the “12-month progression-free survival rate (95% CI), among responders” value [2] was 0.50 (0.01, 0.91) and the “Confirmed complete response (CR)” value [3] was 0%. For the same molecule, the “Confirmed partial response (PR)” value [3] was 2 (20.0%), the “Disease control rate (CR + PR + SD)” value [3] was 9 (90.0%) and the Inevaluable [3] was 1 (10.0%). The “Objective response rate (CR + PR)” value [3] was 2 (20.0%), the “Progressive disease (PD)” value [3] was 0% and the “6-month progression-free survival rate (95% CI), among responders” value [4] was 0.41 (0.21, 0.60). The “9-month progression-free survival rate (95% CI), among responders” value [4] was 0.27 (0.11, 0.46), the “12-month progression-free survival rate (95% CI), among responders” value [4] was 0.18 (0.06, 0.36) and the “Confirmed complete response (CR)” value [5] was 2 (3.4%). For the same molecule, the “Confirmed partial response (PR)” value [5] was 20 (33.9%), the “Disease control rate (CR + PR + SD)” value [5] was 43 (72.9%) and the Inevaluable [5] was 2 (3.4%). For the same molecule, the “Objective response rate (CR + PR)” value [5] was 22 (37.3%), the “Progressive disease (PD)” value [5] was 14 (23.7%) and the “6-month progression-free survival rate (95% CI), among responders” value [6] was 0.67 (0.05, 0.95). The “9-month progression-free survival rate (95% CI), among responders” value [6] was 0.67 (0.05, 0.95), the “12-month progression-free survival rate (95% CI), among responders” value [6] was 0.33 (0.01, 0.77) and the “Confirmed complete response (CR)” value [7] was 1 (25.0%). The “Confirmed partial response (PR)” value [7] was 2 (50.0%), the “Disease control rate (CR + PR + SD)” value [7] was 3 (75.0%) and the Inevaluable [7] was 1 (25.0%). The “Objective response rate (CR + PR)” value [7] was 3 (75.0%), the “Progressive disease (PD)” value [7] was 0% and the “Confirmed complete response (CR)” value [8] was 0%. For the same molecule, the “Confirmed partial response (PR)” value [8] was 0%, the “Disease control rate (CR + PR + SD)” value [8] was 1 (100.0%) and the Inevaluable [8] was 0%. For the same molecule, the “Objective response rate (CR + PR)” value [8] was 0%, the “Progressive disease (PD)” value [8] was 0% and the “Confirmed complete response (CR)” value [9] was 1 (100.0%). The “Confirmed partial response (PR)” value [9] was 0%, the “Disease control rate (CR + PR + SD)” value [9] was 1 (100.0%) and the Inevaluable [9] was 0%. For the same molecule, the “Objective response rate (CR + PR)” value [9] was 1 (100.0%), the “Progressive disease (PD)” value [9] was 0% and the “Confirmed complete response (CR)” value [10] was 0%. For the same molecule, the “Confirmed partial response (PR)” value [10] was 1 (100.0%), the “Disease control rate (CR + PR + SD)” value [10] was 1 (100.0%) and the Inevaluable [10] was 0%. The “Objective response rate (CR + PR)” value [10] was 1 (100.0%), the “Progressive disease (PD)” value [10] was 0% and the “Confirmed complete response (CR)” value [11] was 0%. The “Confirmed partial response (PR)” value [11] was 1 (100.0%), the “Disease control rate (CR + PR + SD)” value [11] was 1 (100.0%) and the Inevaluable [11] was 0%. For the same molecule, the “Objective response rate (CR + PR)” value [11] was 1 (100.0%), the “Progressive disease (PD)” value [11] was 0% and the “Confirmed complete response (CR)” value [12] was 0%. The “Confirmed partial response (PR)” value [12] was 0%, the “Disease control rate (CR + PR + SD)” value [12] was 0% and the Inevaluable [12] was 1 (100.0%). The “Objective response rate (CR + PR)” value [12] was 0%, the “Progressive disease (PD)” value [12] was 0% and the “Confirmed complete response (CR)” value [13] was 0%. For the same molecule, the “Confirmed partial response (PR)” value [13] was 0%, the “Disease control rate (CR + PR + SD)” value [13] was 1 (100.0%) and the Inevaluable [13] was 0%. For the same molecule, the “Objective response rate (CR + PR)” value [13] was 0%, the “Progressive disease (PD)” value [13] was 0% and the “Confirmed complete response (CR)” value [14] was 0%. For the same molecule, the “Confirmed partial response (PR)” value [14] was 1 (100.0%), the “Disease control rate (CR + PR + SD)” value [14] was 1 (100.0%) and the Inevaluable [14] was 0%. For the same molecule, the “Objective response rate (CR + PR)” value [14] was 1 (100.0%), the “Progressive disease (PD)” value [14] was 0% and the “Disease control rate (CR + PR + SD)” value [15] was 69 (79.3%). The Inevaluable [15] was 2 (2.3%), the “Progressive disease (PD)” value [15] was 16 (18.4%) and the “6-month progression-free survival rate (95% CI), among responders” value [16] was 0.50 (0.06, 0.84). The “9-month progression-free survival rate (95% CI), among responders” value [16] was 0.50 (0.06, 0.84), the “Confirmed complete response (CR)” value [17] was 0% and the “Confirmed partial response (PR)” value [17] was 4 (17.4%). For the same molecule, the “Disease control rate (CR + PR + SD)” value [17] was 15 (65.2%), the Inevaluable [17] was 1 (4.3%) and the “Progressive disease (PD)” value [17] was 7 (30.4%). The “6-month progression-free survival rate (95% CI), among responders” value [18] was 0.42 (0.24, 0.59), the “9-month progression-free survival rate (95% CI), among responders” value [18] was 0.19 (0.07, 0.37) and the “12-month progression-free survival rate (95% CI), among responders” value [18] was 0.19 (0.07, 0.37). The “Confirmed complete response (CR)” value [19] was 3 (4.7%), the “Confirmed partial response (PR)” value [19] was 28 (43.8%) and the “Disease control rate (CR + PR + SD)” value [19] was 54 (84.4%). The Inevaluable [19] was 1 (1.6%), the “Progressive disease (PD)” value [19] was 9 (14.1%) and the “Confirmed complete response (CR)” value [20] was 0%. The “Confirmed partial response (PR)” value [20] was 0%, the “Disease control rate (CR + PR + SD)” value [20] was 0% and the Inevaluable [20] was 1 (100.0%). The “Objective response rate (CR + PR)” value [20] was 0%, the “Progressive disease (PD)” value [20] was 0% and the “Confirmed complete response (CR)” value [21] was 1 (3.4%). For the same molecule, the “Confirmed partial response (PR)” value [21] was 5 (17.2%), the “Disease control rate (CR + PR + SD)” value [21] was 23 (79.3%) and the Inevaluable [21] was 2 (6.9%). For the same molecule, the “Progressive disease (PD)” value [21] was 4 (13.8%), the “Confirmed complete response (CR)” value [22] was 0% and the “Confirmed partial response (PR)” value [22] was 0%. The “Disease control rate (CR + PR + SD)” value [22] was 1 (50.0%), the Inevaluable [22] was 0% and the “Objective response rate (CR + PR)” value [22] was 0%. For the same molecule, the “Progressive disease (PD)” value [22] was 1 (50.0%), the “6-month progression-free survival rate (95% CI), among responders” value [23] was 0.80 (0.20, 0.97) and the “9-month progression-free survival rate (95% CI), among responders” value [23] was 0.80 (0.20, 0.97). The “12-month progression-free survival rate (95% CI), among responders” value [23] was 0.60 (0.13, 0.88), the “Confirmed complete response (CR)” value [24] was 1 (4.2%) and the “Confirmed partial response (PR)” value [24] was 4 (16.7%). The “Disease control rate (CR + PR + SD)” value [24] was 20 (83.3%), the Inevaluable [24] was 2 (8.3%) and the “Objective response rate (CR + PR)” value [24] was 5 (20.8%). The “Progressive disease (PD)” value [24] was 2 (8.3%), the “6-month progression-free survival rate (95% CI), among responders” value [25] was 0 (NE, NE) and the “9-month progression-free survival rate (95% CI), among responders” value [25] was 0 (NE, NE). For the same molecule, the “12-month progression-free survival rate (95% CI), among responders” value [25] was 0 (NE, NE), the “Confirmed complete response (CR)” value [26] was 0% and the “Confirmed partial response (PR)” value [26] was 1 (33.3%). The “Disease control rate (CR + PR + SD)” value [26] was 2 (66.7%), the Inevaluable [26] was 0% and the “Objective response rate (CR + PR)” value [26] was 1 (33.3%). The “Progressive disease (PD)” value [26] was 1 (33.3%), the “Confirmed complete response (CR)” value [27] was 0% and the “Confirmed partial response (PR)” value [27] was 1 (100.0%). The “Disease control rate (CR + PR + SD)” value [27] was 1 (100.0%), the Inevaluable [27] was 0% and the “Objective response rate (CR + PR)” value [27] was 1 (100.0%). The “Progressive disease (PD)” value [27] was 0%, the “Confirmed complete response (CR)” value [28] was 0% and the “Confirmed partial response (PR)” value [28] was 0%. The “Disease control rate (CR + PR + SD)” value [28] was 0%, the Inevaluable [28] was 0% and the “Objective response rate (CR + PR)” value [28] was 0%. The “Progressive disease (PD)” value [28] was 1 (100.0%), the “Confirmed complete response (CR)” value [29] was 0% and the “Confirmed partial response (PR)” value [29] was 0%.
